Test results taken from patent US20240408170A1, “COMPOSITION FOR DECOMPOSITION OF TRYPSIN OR TMPRSS2” (Riken, priority 2021, published 2024).

What was measured:
recombinant human PRSS1 = molecular target: T1, recombinant human PRSS1 (Homo sapiens, UniProt P07477); assay: Human trypsin decomposition in vitro by P. clara (western blot); assay type: biochemical
T1 construct: purchased LS-G135640
Description: (§1) Mouse faecal samples were suspended and diluted 50-fold with phosphate buffered saline (PBS) to which a protease inhibitor cocktail (Roche) was added. Subsequently, the suspended sample was centrifuged at 15,000×g for 10 minutes at 4° C., and the supernatant was subjected to western blot. Mouse pancreatic tissue was rapidly frozen in liquid nitrogen. Proteins were extracted by TRIzol Reagent (Thermo Fisher Scientific K.K.), and the final protein concentration was adjusted to 4 μg/μL. For SDS-PAGE and blotting, Novex (registered trademark) NuPAGE (registered trademark) SDS-PAGE Gel system (Thermo Fisher Scientific K.K.) and iBlot™ 2 Dry Blotting System (Thermo Fisher Scientific K.K.) were used according to the manufacturer's instructions.
(§2) The bacteria cultured overnight were incubated with recombinant mouse trypsin (final concentration: 1 μg/mL) for 1 hour or with human trypsin (final concentration: 20 μg/mL) for 4 hours. Recombinant trypsin isoforms used were as follows: recombinant mouse PRSS2 (50383-M08H, Sino Biological, Inc.), recombinant human PRSS1 (LS-G135640), recombinant human PRSS2 (LS-G20167), and recombinant human PRSS3 (His-tag) (NBP2-52220).

recombinant human PRSS2 = molecular target: T2, recombinant human PRSS2 (Homo sapiens, UniProt P07478); assay: as above; assay type: biochemical
T2 construct: purchased LS-G20167
T2 sequence (P07478 24-247): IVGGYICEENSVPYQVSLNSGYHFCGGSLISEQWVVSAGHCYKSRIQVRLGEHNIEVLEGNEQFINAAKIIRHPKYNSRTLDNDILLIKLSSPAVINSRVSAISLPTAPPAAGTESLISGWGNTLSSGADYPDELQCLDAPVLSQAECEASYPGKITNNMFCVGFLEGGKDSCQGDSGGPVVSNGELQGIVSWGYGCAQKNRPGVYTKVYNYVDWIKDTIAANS
Description: as §1, §2

trypsin = molecular target: T3, trypsin (Mus musculus, UniProt P07146); assay: Substrate specificity: ex vivo incubation of GF mouse cecal contents with P. clara, peptidome analysis by LC-MS; assay type: biochemical; conditions: 7614 peptides derived from 276 proteins, cecal contents of GF mice
T3 construct: the anionic trypsin protease was abundantly present in the cecal contents and the faeces; from tissue; host or cells: faeces and cecal contents of germ-free / gnotobiotic mice
T3 sequence (P07146 24-246): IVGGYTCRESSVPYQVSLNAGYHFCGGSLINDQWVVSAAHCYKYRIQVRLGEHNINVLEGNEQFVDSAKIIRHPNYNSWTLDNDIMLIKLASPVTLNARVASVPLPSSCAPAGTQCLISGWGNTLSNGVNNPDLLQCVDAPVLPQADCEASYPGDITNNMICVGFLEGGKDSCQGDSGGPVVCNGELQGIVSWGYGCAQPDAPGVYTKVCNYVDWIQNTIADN
Description: An acetonitrile (ACN) containing 0.1% trifluoroacetic acid (TFA) was added to the cecal contents and dried with a centrifugal evaporator. Acetone was added to the dried sample, and a low-molecular-weight compound that was soluble in lipids was extracted with a water bath type sonicator. Thereafter, centrifugation was performed at 15,000×g for 15 minutes at 4° C.
After removing the supernatant, 70% ACN-HCl was added to the precipitate, and the peptides were redissolved in a water bath type sonicator. Thereafter, centrifugation was performed at 15,000×g for 15 minutes at 4° C. Subsequently, the supernatant was transferred to a new tube and dried with a centrifugal evaporator. Subsequently, the dried sample was redissolved in 100 mM Tris-HCl containing a protease inhibitor, and then treated with 10 mM dithiothreitol at 50° C. for 30 minutes. Thereafter, alkylation was carried out with 30 mM iodoacetamide for 30 minutes at room temperature in a dark place. Thereafter, acidification was carried out with 0.5% trifluoroacetic acid (final concentration). The acidified sample was desalted with MonoSpin C18 (GL Sciences Inc.). […]
The peptides eluted from the column were analyzed by DDA-MS using Q Exactive HF-X (Thermo Fisher Scientific K.K.). […]

recombinant mouse PRSS2 [1] = molecular target: T4, recombinant mouse PRSS2 (Mus musculus, UniProt P07146); assay: Binding of Alexa Fluor 488-labeled rmPRSS2 to the surface of bacteria (confocal microscope)
T4 construct: purchased Sino Biological, Inc. 50383-M08H
T4 sequence (P07146 24-246): T3 sequence (P07146 24-246)
Description: Recombinant mouse PRSS2 was labeled with Alexa Fluor™ 488 using an Alexa Fluor™ 488 Antibody Labeling Kit (Δ20181, Thermo Fisher Scientific K.K.), and was pretreated with an AEBSF inhibitor (150 μg/mL rmPRSS2 with 20 mM AEBSF).
Mouse PRSS2 labeled with Alexa Fluor™ 488 was incubated in an anaerobic chamber for 20 minutes with bacteria cultured at a final concentration of 5 μg/mL. The mixture was centrifuged, washed once with PBS, and then resuspended in PBS. A Leica TCS SP8 confocal microscope was used for capturing a confocal image.

FITC-casein substrate = assay: Protease activity assay (cleavage of FITC-labeled casein); assay type: biochemical
Description: The protease activity of the P. clara culture solution, the P. clara culture solution supernatant, the recombinant 00502 protein, and the recombinant 005009 protein were measured using Pierce™ Fluorescent Protease Assay Kit (#23266, Thermo Fisher Scientific K.K.) according to the manufacturer's protocol.
Using PerkinElmer 2030 Multilabel Reader equipped with an excitation filter and a fluorescence filter of fluorescein (485/538 nm), an increase in total fluorescence due to digestion of the FITC-casein substrate to smaller fluorescein-labeled fragments was detected. The protease activity was measured as a change in relative fluorescence units (RFUs).

recombinant mouse PRSS2 [2] = molecular target: T4, recombinant mouse PRSS2; assay: Trypsin decomposition in vitro by bacteria (western blot); assay type: biochemical
Description: as §1, §2
In some experiments, recombinant mouse PRSS2 was first treated with one of the following trypsin inhibitors for 30 minutes before incubation with a P. clara culture solution. AEBSF (Sigma-Aldrich, final concentration: 2 mM), Leupeptin (Sigma-Aldrich, final concentration: 100 μM), and TLCK (Abcam plc., final concentration: 100 μM).
In some experiments, P. clara was cultured overnight in the presence of Tunicamycin (Sigma-Aldrich, final concentration: 10 μg/mL), 2-Fluoro-L-fucose (Cayman Chemical Company, final concentration: 250 μM), or the corresponding DMSO control, before incubation with recombinant mouse PRSS2.
In the experiment of evaluating the effect of Ca^2+, P. clara was cultured in a low Ca^2+ mGAM medium supplemented with or without 1 mM of Ca^2+, before incubation with recombinant mouse PRSS2. In the experiment in which the supernatant of P. clara was used, P. clara cultured overnight was filtered through a sterilization filter unit formed using a PVDF film having a pore size of 0.22 μm.

## Paraprevotella clara [P. clara (strain ID: 1C4)]
Recombinant human PRSS1
  decomposition of human trypsin PRSS1 (western blot): can promote the reduction
Recombinant human PRSS2
  decomposition of human trypsin PRSS2 (western blot): can promote the reduction
trypsin
  substrate specificity: proteins with increase in peptide concentration over time: trypsin was only one protein that exhibited a pattern of a clear increase in peptide concentration over time
Recombinant mouse PRSS2 [1]
  binding of rmPRSS2 to the surface of bacteria: accumulate on the surface
FITC-casein substrate
  protease activity (change in relative fluorescence units): no proteolytic activity was detected
Recombinant mouse PRSS2 [2]
  reaction rate of trypsin decomposition by P. clara: gradually occurs stoichiometrically
Recombinant mouse PRSS2 [2]; Ca2+
  dependence of P. clara-mediated trypsin decomposition on divalent cations: occurred only in the presence of a sufficient amount of divalent cations
Recombinant mouse PRSS2 [2]; bacteria or culture supernatant incubated with recombinant mouse trypsin
  decomposition of rmPRSS2 (western blot): reduced trypsin
